Assay results: patent US20020137929A1, “1 - (3-heterocyclylphenyl) isothiourea, -isourea, -guanidine and -amidine herbicidal agents” (Intellectual Property Department, BASF Aktiengesellschaft, priority 1998, published 2002)

Experiments:
[1] = tested on: TRZAWR (Wheat, Winter, cv Riband); experiment: Postemergence herbicidal evaluation; type: in vivo, Triticum aestivum; conditions: postemergence
Outline: (§1)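 First, seedlings were raised for around two weeks. Next, test material in 50/50 acetone/water containing 0.5% TWEEN 20 was sprayed through a nozzle at 40 psi, equivalent to about 0.0156–0.500 kg/ha. Finally, after 4–5 weeks in the greenhouse, plants were rated 0–9.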

[2] = tested on: ECHORC (Watergrass (Calif.)); experiment: Preemergence weed control under flooded paddy conditions; type: in vivo, Echinochloa oryzoides; conditions: rated 3-4 weeks after treatment
Outline: (§2)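 Flooded-pot preemergence screen with silt loam and seeds in the upper 0.5 cm. Dose about 0.0313 to 0.500 kg/ha, delivered into flood water; visual 0-9 score after 3 to 4 weeks.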

[3] = tested on: ECHORC (Watergrass (Calif.)); experiment: Postemergence weed control under flooded paddy conditions; type: in vivo, Echinochloa oryzoides; conditions: postemergence weeds, rated 3 to 4 weeks after treatment
Outline: (§3)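 Containers holding 3–5 cm weeds and rice at 1.5–2.5 leaves are flooded to 1.5–3 cm above soil. Compound in 50/50 v/v aqueous/acetone is then added directly to the water, about 0.0313–0.500 kg/ha. Plants are kept in the greenhouse and rated 0–9 visually at 3–4 weeks.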

[4] = tested on: SAGPY (Arrowhead (Pygmaea)); experiment: as above; type: in vivo, Sagittaria pygmaea; conditions: postemergence weeds, rated 3 to 4 weeks after treatment
Outline: as §3

CYPIR (Rice Flatsedge) = experiment: Preemergence weed control under flooded paddy conditions; type: in vivo, Cyperus iria; conditions: rated 3-4 weeks after treatment
Outline: as §2

[5] = tested on: IPOHE (Morningglory, Ivyleaf); experiment: Postemergence herbicidal evaluation; type: in vivo, Ipomoea hederacea; conditions: postemergence
Outline: as §1

ABUTH (Velvetleaf) = experiment: Preemergence herbicidal evaluation; type: in vivo, Abutilon theophrasti; conditions: rated 4-5 weeks after treatment; for ABUTH rating: preemergence, 0-9 scale
Outline: (§4)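 Greenhouse preemergence test: seed-soil mix sown on ~1 inch soil; aqueous acetone spray at equivalent of ~0.0156–0.500 kg/ha; greenhouse-held and watered; scored 0–9 visually at 4–5 weeks.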

ZEAMX (Corn, Field) = experiment: Preemergence herbicidal evaluation; type: in vivo, Zea mays; conditions: rated 4-5 weeks after treatment; for ZEAMX rating: preemergence, 0-9 scale
Outline: as §4

SETVI (Foxtail, Green) [6] = experiment: Preemergence herbicidal evaluation; type: in vivo, Setaria viridis; conditions: rated 4-5 weeks after treatment; for SETVI rating: preemergence, 0-9 scale
Outline: as §4

SETVI (Foxtail, Green) [7] = experiment: Postemergence herbicidal evaluation; type: in vivo, Setaria viridis; conditions: postemergence
Outline: as §1

[8] = tested on: IPOHE (Morningglory, Ivyleaf); experiment: Preemergence herbicidal evaluation; type: in vivo, Ipomoea hederacea; conditions: rated 4-5 weeks after treatment; for IPOHE rating: preemergence, 0-9 scale
Outline: as §4

ECHCG (Barnyardgrass) = experiment: Preemergence herbicidal evaluation; type: in vivo, Echinochloa crus-galli; conditions: rated 4-5 weeks after treatment; for ECHCG rating: preemergence, 0-9 scale
Outline: as §4

GALAP (Galium) = experiment: Postemergence herbicidal evaluation; type: in vivo, Galium aparine; conditions: postemergence
Outline: as §1

CCOC(=O)C(c1ccc(Cl)cc1)N1C(=O)CSC1=Nc1cc(-n2c(=O)cc(C(F)(F)F)n(C)c2=O)c(F)cc1Cl (racemic) [Compound 79, Ethyl α-(p-chlorophenyl)-2-{{2-chloro-5-[3,6-dihydro-3-methyl-2,6-dioxo-4-(trifluoromethyl)-1(2H)-pyrimidinyl]-4-fluorophenyl}imino}-4-oxo-3-thiazolidineacetate, DL-]
7.0: ECHORC herbicidal effect rating ([2]; 0.1250 kg/ha) | Herbicidal rating ECHORC ([3]; Rate 0.1250 kg/ha)
5.0: TRZAWR herbicidal rating ([1]; rate 0.0630 kg/ha) | ECHORC herbicidal effect rating ([2]; 0.0313 kg/ha) | Herbicidal rating ECHORC ([3]; Rate 0.0313 kg/ha)
8.0: ECHORC herbicidal effect rating ([2]; 0.2500 kg/ha) | Herbicidal rating ECHORC ([3]; Rate 0.2500 kg/ha)
2.0: CYPIR herbicidal effect rating (CYPIR (Rice Flatsedge); 0.1250 kg/ha) | Preemergence herbicidal rating ABUTH (ABUTH (Velvetleaf); rate 0.0625 kg/ha) | Preemergence herbicidal rating ZEAMX (ZEAMX (Corn, Field); rate 0.2500 kg/ha) | GALAP herbicidal rating (GALAP (Galium); rate 0.0315 kg/ha)
9.0: IPOHE herbicidal rating ([5]; rate 0.0158 kg/ha) | IPOHE herbicidal rating ([5]; rate 0.0315 kg/ha) | IPOHE herbicidal rating ([5]; rate 0.0630 kg/ha) | Preemergence herbicidal rating ABUTH (ABUTH (Velvetleaf); rate 0.2500 kg/ha)
1.0: Preemergence herbicidal rating ZEAMX (ZEAMX (Corn, Field); rate 0.0313 kg/ha) | Preemergence herbicidal rating ZEAMX (ZEAMX (Corn, Field); rate 0.0625 kg/ha) | Preemergence herbicidal rating ZEAMX (ZEAMX (Corn, Field); rate 0.1250 kg/ha) | Preemergence herbicidal rating SETVI (SETVI (Foxtail, Green) [6]; rate 0.0313 kg/ha) | Preemergence herbicidal rating SETVI (SETVI (Foxtail, Green) [6]; rate 0.0625 kg/ha) | Preemergence herbicidal rating SETVI (SETVI (Foxtail, Green) [6]; rate 0.1250 kg/ha) | SETVI herbicidal rating (SETVI (Foxtail, Green) [7]; rate 0.0315 kg/ha) | SETVI herbicidal rating (SETVI (Foxtail, Green) [7]; rate 0.0630 kg/ha) | Preemergence herbicidal rating IPOHE ([8]; rate 0.2500 kg/ha) | GALAP herbicidal rating (GALAP (Galium); rate 0.0158 kg/ha) | GALAP herbicidal rating (GALAP (Galium); rate 0.0630 kg/ha)
4.0: Herbicidal rating SAGPY ([4]; Rate 0.1250 kg/ha) | Herbicidal rating SAGPY ([4]; Rate 0.2500 kg/ha) | Preemergence herbicidal rating SETVI (SETVI (Foxtail, Green) [6]; rate 0.2500 kg/ha) | SETVI herbicidal rating (SETVI (Foxtail, Green) [7]; rate 0.0158 kg/ha)
3.0: TRZAWR herbicidal rating ([1]; rate 0.0158 kg/ha)
2.5: TRZAWR herbicidal rating ([1]; rate 0.0315 kg/ha)
6.0: ECHORC herbicidal effect rating ([2]; 0.0625 kg/ha) | Herbicidal rating ECHORC ([3]; Rate 0.0625 kg/ha) | CYPIR herbicidal effect rating (CYPIR (Rice Flatsedge); 0.2500 kg/ha) | Preemergence herbicidal rating ABUTH (ABUTH (Velvetleaf); rate 0.1250 kg/ha)
0.0: Herbicidal rating SAGPY ([4]; Rate 0.0313 kg/ha) | Herbicidal rating SAGPY ([4]; Rate 0.0625 kg/ha) | CYPIR herbicidal effect rating (CYPIR (Rice Flatsedge); 0.0313 kg/ha) | CYPIR herbicidal effect rating (CYPIR (Rice Flatsedge); 0.0625 kg/ha) | Preemergence herbicidal rating ABUTH (ABUTH (Velvetleaf); rate 0.0313 kg/ha) | Preemergence herbicidal rating IPOHE ([8]; rate 0.0313 kg/ha) | Preemergence herbicidal rating IPOHE ([8]; rate 0.0625 kg/ha) | Preemergence herbicidal rating IPOHE ([8]; rate 0.1250 kg/ha) | Preemergence herbicidal rating ECHCG (ECHCG (Barnyardgrass); rate 0.0313 kg/ha) | Preemergence herbicidal rating ECHCG (ECHCG (Barnyardgrass); rate 0.0625 kg/ha) | Preemergence herbicidal rating ECHCG (ECHCG (Barnyardgrass); rate 0.1250 kg/ha) | Preemergence herbicidal rating ECHCG (ECHCG (Barnyardgrass); rate 0.2500 kg/ha)

CCOC(=O)CN1C(=O)C(CC(=O)OCCF)SC1=Nc1cc(-n2c(=O)cc(C(F)(F)F)n(C)c2=O)c(F)cc1Cl (centres unmarked) [Compound 82, 2-{{2-Chloro-5-[3,6-dihydro-3-methyl-2,6-dioxo-4-(trifluoromethyl)-1(2H)-pyrimidinyl]-4-fluoro-phenyl}imino}-4-oxo-3,5-thiazolidinediacetic acid, 3-ethyl 2-fluoroethyl ester]
8.5: TRZAWR herbicidal rating ([1]; rate 0.0630 kg/ha)
7.5: TRZAWR herbicidal rating ([1]; rate 0.0158 kg/ha) | TRZAWR herbicidal rating ([1]; rate 0.0315 kg/ha)
9.0: ECHORC herbicidal effect rating ([2]; 0.2500 kg/ha) | Herbicidal rating ECHORC ([3]; Rate 0.2500 kg/ha) | IPOHE herbicidal rating ([5]; rate 0.0158 kg/ha) | IPOHE herbicidal rating ([5]; rate 0.0315 kg/ha) | IPOHE herbicidal rating ([5]; rate 0.0630 kg/ha) | ABUTH rating (ABUTH (Velvetleaf); 0.0313 kg/ha) | ABUTH rating (ABUTH (Velvetleaf); 0.0625 kg/ha) | ABUTH rating (ABUTH (Velvetleaf); 0.1250 kg/ha) | ABUTH rating (ABUTH (Velvetleaf); 0.2500 kg/ha) | SETVI rating (SETVI (Foxtail, Green) [6]; 0.1250 kg/ha) | SETVI rating (SETVI (Foxtail, Green) [6]; 0.2500 kg/ha) | SETVI herbicidal rating (SETVI (Foxtail, Green) [7]; rate 0.0158 kg/ha) | SETVI herbicidal rating (SETVI (Foxtail, Green) [7]; rate 0.0315 kg/ha) | SETVI herbicidal rating (SETVI (Foxtail, Green) [7]; rate 0.0630 kg/ha) | IPOHE rating ([8]; 0.1250 kg/ha) | IPOHE rating ([8]; 0.2500 kg/ha) | GALAP herbicidal rating (GALAP (Galium); rate 0.0315 kg/ha) | GALAP herbicidal rating (GALAP (Galium); rate 0.0630 kg/ha)
6.0: ECHORC herbicidal effect rating ([2]; 0.1250 kg/ha) | Herbicidal rating ECHORC ([3]; Rate 0.1250 kg/ha)
4.0: ECHORC herbicidal effect rating ([2]; 0.0313 kg/ha) | ECHORC herbicidal effect rating ([2]; 0.0625 kg/ha) | Herbicidal rating ECHORC ([3]; Rate 0.0313 kg/ha) | Herbicidal rating ECHORC ([3]; Rate 0.0625 kg/ha) | Herbicidal rating SAGPY ([4]; Rate 0.0313 kg/ha) | Herbicidal rating SAGPY ([4]; Rate 0.0625 kg/ha) | Herbicidal rating SAGPY ([4]; Rate 0.1250 kg/ha) | IPOHE rating ([8]; 0.0625 kg/ha) | GALAP herbicidal rating (GALAP (Galium); rate 0.0158 kg/ha)
7.0: Herbicidal rating SAGPY ([4]; Rate 0.2500 kg/ha) | SETVI rating (SETVI (Foxtail, Green) [6]; 0.0625 kg/ha) | ECHCG rating (ECHCG (Barnyardgrass); 0.2500 kg/ha)
0.0: CYPIR herbicidal effect rating (CYPIR (Rice Flatsedge); 0.0313 kg/ha) | CYPIR herbicidal effect rating (CYPIR (Rice Flatsedge); 0.0625 kg/ha) | ZEAMX rating (ZEAMX (Corn, Field); 0.0156 kg/ha) | ZEAMX rating (ZEAMX (Corn, Field); 0.0313 kg/ha) | ZEAMX rating (ZEAMX (Corn, Field); 0.0625 kg/ha) | ZEAMX rating (ZEAMX (Corn, Field); 0.1250 kg/ha) | SETVI rating (SETVI (Foxtail, Green) [6]; 0.0156 kg/ha) | SETVI rating (SETVI (Foxtail, Green) [6]; 0.0313 kg/ha) | IPOHE rating ([8]; 0.0156 kg/ha) | IPOHE rating ([8]; 0.0313 kg/ha) | ECHCG rating (ECHCG (Barnyardgrass); 0.0156 kg/ha) | ECHCG rating (ECHCG (Barnyardgrass); 0.0313 kg/ha) | ECHCG rating (ECHCG (Barnyardgrass); 0.0625 kg/ha)
3.0: CYPIR herbicidal effect rating (CYPIR (Rice Flatsedge); 0.1250 kg/ha) | CYPIR herbicidal effect rating (CYPIR (Rice Flatsedge); 0.2500 kg/ha) | ABUTH rating (ABUTH (Velvetleaf); 0.0156 kg/ha) | ZEAMX rating (ZEAMX (Corn, Field); 0.2500 kg/ha) | ECHCG rating (ECHCG (Barnyardgrass); 0.1250 kg/ha)
